Assay results taken from ChEMBL document CHEMBL4196156, “Allosteric Modulators of the M4 Muscarinic Acetylcholine Receptor” (ACS Med Chem Lett, 2018).

Target: T1, Muscarinic acetylcholine receptor M4 (Homo sapiens, UniProt P08173)
T1 sequence (P08173 whole entry): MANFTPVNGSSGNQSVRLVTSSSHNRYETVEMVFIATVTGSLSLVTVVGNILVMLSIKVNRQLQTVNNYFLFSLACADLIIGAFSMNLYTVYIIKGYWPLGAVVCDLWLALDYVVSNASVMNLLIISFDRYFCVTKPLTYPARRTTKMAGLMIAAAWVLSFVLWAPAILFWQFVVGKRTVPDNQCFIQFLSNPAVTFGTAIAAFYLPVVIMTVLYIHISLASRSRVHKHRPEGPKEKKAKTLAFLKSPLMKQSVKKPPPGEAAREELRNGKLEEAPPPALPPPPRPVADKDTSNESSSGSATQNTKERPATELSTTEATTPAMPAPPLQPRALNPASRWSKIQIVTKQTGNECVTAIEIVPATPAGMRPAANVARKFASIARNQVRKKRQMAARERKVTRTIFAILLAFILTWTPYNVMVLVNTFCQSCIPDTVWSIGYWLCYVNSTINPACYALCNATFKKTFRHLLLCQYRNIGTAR
Assay: Positive allosteric modulation of human muscarinic acetylcholine receptor M4 expressed in CHO-K1 cells coexpressing Galphaqi5 assessed as increase in acetylcholine-induced […] incubated for 16 to 20 hrs measured for 3.5 to 4 mins by FLIPR assay
Type: functional, cell-based

| EC50 | Compound |
| --- | --- |
| 17 nM | Cc1cc2c(nc1N1CC[C@@H](Oc3ccc4c(cnn4C)c3)[C@@H](F)C1)CNC2=O |
| 15 nM | COc1ccc(OC2CCN(c3nc4oc(=O)[nH]c(=O)c4c(Cl)c3C)CC2)cn1 |
| 25 nM | COc1ccc(OC2CCN(c3nc(CO)nc(Cl)c3C)CC2)cn1 |
